We go through two compounds from patent US20100092443A1, “NOVEL COMBINATIONS OF NITROGENATED HETEROCYCLIC ANTIBACTERIAL COMPOUNDS WITH OTHER ANTIBACTERIAL COMPOUNDS AND THE USE OF SAME AS DRUGS” (priority 2008, published 2010).

Structures can show the parent of a compound that is named as a salt. Where two headings read alike, the source gives them in different places.

One experiment deals with E. aerogenes. In words: MIC, dilutions in liquid medium, alone and combined with NXL105. It is filed as cell-based. Conditions: E. aerogenes EAR2, Case-R + FEP-R.
The subject of experiment [1] is P. aeruginosa (391 HT2). Description: MICs determined on microplates. It is filed as cell-based, Pseudomonas aeruginosa. Conditions: sensitive strain P. aeruginosa 391 HT2. How it is done:
(§1) The minimum inhibitory concentrations (MICs) of the products to be tested (products alone and combinations) are determined in advance. • For each concentration of product to be tested as well as the control stock, an Erlenmeyer flask containing 18.5 ml Muller-Hinton medium (Ca^++) is prepared. • From an overnight culture in broth or a bacterial suspension of OD (optical density)=1, a 1/100 dilution is prepared. • The sample is cultured with agitation for 2 h at 37° C. • OD is measured: if >0.5, the sample is diluted to 1/10. • Each Erlenmeyer flask is inoculated with 1 ml of the agitated culture or its dilution. The initial inoculum should be 1×10^6 CFU/ml. • The various antibiotic solutions are added at a volume of 0.5 ml and 0.5 ml of medium in the control Erlenmeyer flask. • With a volume of 0.1 ml, the control Erlenmeyer flask is numbered=TO. • The flask is incubated at 37° C. with agitation. • At each sampling point (2, 4, 6, 24, 48 hours), a volume of 0.1 ml is sampled from each Erlenmeyer flask and numbered. • Plates for all the numbered samples are incubated (24 h-48 h) at 37° C.
Bactericidal activity was evaluated on a sensitive strain of P. aeruginosa (391 HT2)

Experiment [2] deals with P. aeruginosa (391 HT2). In words: MICs in a volume of 10 ml, bactericidal conditions (exponential bacterial growth). Format: cell-based, Pseudomonas aeruginosa. How it is done:
as §1
For the bactericidal tests, MICs are determined in a volume of 10 ml-bactericidal conditions (exponential bacterial growth): […]

The term MIC denotes the smallest concentration in the dilution series that meets the test's criterion for growth inhibition. For `Cn1ncc2c1[C@@H](CN)N1C[C@H]2N(OS(=O)(=O)O)C1=O` (relative stereo) [NXL105, Sodium and Trifluoroacetate Salts of trans 8-(aminomethyl)-4,8-dihydro-1-methyl-5-(sulphooxy)-4,7-methano-7H-pyrazolo[3,4-e][1,3]diazepin-6(5H)-one], the MIC with E. aerogenes is greater than 32 µg/mL. The “MIC determined on microplates” value in the experiment on P. aeruginosa (391 HT2) [1] worked out at 0.25 µg/mL. Also, in the experiment with P. aeruginosa (391 HT2) [2], the “MIC in a volume of 10 ml, bactericidal conditions” value was 0.25 µg/mL.
Regarding `CC(C)(O/N=C(\C(=O)N[C@@H]1C(=O)N2C(C(=O)[O-])=C(C[n+]3ccccc3)CS[C@H]12)c1csc(N)n1)C(=O)O` [Ceftazidime], the MIC in the experiment with E. aerogenes (Klebsiella aerogenes, 24 h, read-out: MIC) was greater than 32 µg/mL; in the experiment with P. aeruginosa (391 HT2) [1] (Pseudomonas aeruginosa) it was 2 µg/mL; in the experiment on P. aeruginosa (391 HT2) [2] (Pseudomonas aeruginosa) it was 8 µg/mL.
